Results taken from patent publication US9750756B2, “Celecoxib compositions” (Pfizer Inc., priority 1998, dated 2017).

Test: Effect of food study (Example 17)
Type: in vivo, human
Conditions: healthy adult subjects, single 50 mg or 100 mg capsule doses, fasting or fed
Protocol: An open-label randomized, single dose, four-way crossover study was employed to evaluate the dose proportionality and the effect of food on the pharmacokinetic profile of celecoxib in healthy adult subjects. Safety was assessed based on adverse events, vital signs and clinical laboratory tests. Twenty four healthy adult subjects were randomized to receive the following single doses of celecoxib: (A) a 50 mg dose capsule under fasting conditions, (B) a 50 mg dose capsule immediately following a high fat breakfast, (C) a 100 mg dose capsule under fasting conditions, and (D) a 100 mg dose capsule immediately following a high fat breakfast. The subjects received the study medication on days 1, 8, 15 and 22 in one of four treatment sequences (ADBC; BACD; CBDA; and DCAB). The specific composition of the 100 mg dose capsule is disclosed in Example 1. The specific composition of the 50 mg dose capsule is disclosed in Table 17A below:
Blood samples were collected at −0.25 (predose), 0.5, 1, 1.5, 2, 3, 4, 6, 8, 12, 16, 24, 36 and 48 hours post dose. Analyses of the separated plasma were performed at PPD Pharmaco, Richmond, Va. Celecoxib plasma concentrations were determined using a validated high performance liquid chromatography (“HPLC”) procedure with a lower limit of detection of 10.0 ng/ml. […] All adverse events were mild in severity.

Cc1ccc(-c2cc(C(F)(F)F)nn2-c2ccc(S(N)(=O)=O)cc2)cc1 [celecoxib, 4-[5-(4-methylphenyl)-3-(trifluoromethyl)-1H-pyrazol-1-yl]benzenesulfonamide]
changes in vital signs or physical examinations: no clinically significant changes
severity of adverse events: mild
